Data: US20020137162A1, “Antisense oligonucleotide inhibition of specific histone deacetylase isoforms” (priority 2000, published 2002)
d = 2'-deoxy (DNA); m = 2'-O-methyl

Legend:
[1] = tested on: human HDAC-3; experiment: Antisense ODN screen, HDAC-3 RNA, T24 cells; format: cell-based; details: 100 nM, 24 hours, Northern blot
Protocol: Twenty-one phosphorothioate ODNs containing sequences complementary to the 5′ or 3′ UTR of the human HDAC-3 gene (GenBank Accession No. AF039703) were screened as above. […] HDAC-3 MM oligonucleotide was created as a control; compared to the antisense oligonucleotide, it contains a 6-base mismatch.
(§1) Briefly, human A549 and/or T24 human bladder carcinoma cells were seeded in 10 cm tissue culture dishes one day prior to oligonucleotide treatment. The cell lines were obtained from the American Type Culture Collection (ATCC) (Manassas, Va.) and were grown under the recommended culture conditions. Before the addition of the oligonucleotides, cells were washed with PBS (phosphate buffered saline). Next, lipofectin transfection reagent (GIBCO BRL Mississauga, Ontario, Calif.), at a concentration of 6.25 μg/ml, was added to serum free OPTIMEM medium (GIBCO BRL, Rockville, Md.), which was then added to the cells. The oligonucleotides to be screened were then added directly to the cells (i.e., one oligonucleotide per plate of cells). Mismatched oligonucleotides were used as controls. The same concentration of oligonucleotide (e.g., 50 nM) was used per plate of cells for each oligonucleotide tested.
(§2) Cells were harvested, and total RNAs were analyzed by Northern blot analysis. Briefly, total RNA was extracted using RNeasy miniprep columns (QIAGEN). […]

[2] = tested on: HDAC-3 protein; experiment: Western blot of HDAC isotype protein expression in A549 cells, HDAC-3; format: cell-based, human; details: 50 nM, 48 hours
Protocol: (§3) OSDN treatment conditions were as previously described.
(§4) Cells were lysed in buffer containing 1% Triton X-100, 0.5% sodium deoxycholate, 5 mM EDTA, 25 mM Tris-HC1, pH 7.5, plus protease inhibitors. Total protein was quantified by the protein assay reagent from Bio-Rad (Hercules, Calif.). 100 ug of total protein was analyzed by SDS-PAGE. Next, total protein was transferred onto a PVDF membrane and probed with various HDAC-specific primary antibodies. Rabbit anti-HDAC-1 (H-51), anti-HDAC-2 (H-54) antibodies (Santa Cruz Biotechnologies, Santa Cruz, Calif.) were used at 1:500 dilution. Rabbit anti-HDAC-3 antibody (Sigma, St. Louis, Mo.) was used at a dilution of 1:1000. Anti-HDAC-4 antibody was prepared as previously described (Wang, S. H. et al., (1999) Mol. Cell. Biol. 19:7816-27), and was used at a dilution of 1:1000. Anti-HDAC-6 antibody was raised by immunizing rabbits with a GST fusion protein containing a fragment of HDAC-6 protein (amino acid #990 to #1216, GenBank Accession No. AAD29048). Rabbit antiserum was tested and found only to react specifically to the human HDAC-6 isoform. HDAC-6 antiserum was used at 1:500 dilution in Western blots to detect HDAC-6 in total cell lysates. Horse Radish Peroxidase conjugated secondary antibody was used at a dilution of 1:5000 to detect primary antibody binding. […]

[3] = tested on: A549; experiment: Cell growth inhibition, trypan blue cell count; format: cell-based, human; details: A549 cancer cells, 50 nM, 72 hours
Protocol: (§5) In order to determine the effect of HDAC OSDNs on cell growth and cell death through apoptosis, A549 or T24 cells, MDAmb231 cells, and HMEC cells (ATCC, Manassas, Va.) were treated with HDAC OSDNs as previously described.
(§6) Cells were harvested and cell numbers counted by trypan blue exclusion using a hemocytometer. Percentage of inhibition was calculated as (100—AS cell numbers/control cell numbers) %.

[4] = tested on: HMEC; experiment: Cell growth inhibition, trypan blue cell count; format: cell-based, human; details: HMEC normal cells, 50 nM, 72 hours
Protocol: as §5, §6

[5] = tested on: MDAmb231; experiment: Cell growth inhibition, trypan blue cell count; format: cell-based, human; details: MDAmb231 cancer cells, 50 nM, 72 hours
Protocol: as §5, §6

[6] = tested on: T24; experiment: Cell growth inhibition, trypan blue cell count; format: cell-based, human; details: T24 cancer cells, 50 nM, 72 hours
Protocol: as §5, §6

[7] = tested on: A549; experiment: Apoptosis, Cell Death Detection ELISA; format: cell-based, human; details: fold over non-specific background, TSA at 100 ng/ml
Protocol: as §5
(§7) For the apoptosis study, cells were analyzed using the Cell Death Detection ELISA ^PLUSkit (Roche Diagnostic GmBH, Mannheim, Germany) according to the manufacturer's directions. Typically, 10,000 cells were plated in 96-well tissue culture dishes for 2 hours before harvest and lysis. Each sample was analyzed in duplicate. ELISA reading was done using a MR700 plate reader (DYNEX Technology, Ashford, Middlesex, England) at 410 nm. The reference was set at 490 nm.

[8] = tested on: HMEC; experiment: Apoptosis, Cell Death Detection ELISA; format: cell-based, human; details: fold over non-specific background, TSA at 100 ng/ml
Protocol: as §5, §7

[9] = tested on: MDAmb231; experiment: Apoptosis, Cell Death Detection ELISA; format: cell-based, human; details: fold over non-specific background, TSA at 100 ng/ml
Protocol: as §5, §7

[10] = tested on: T24; experiment: Apoptosis, Cell Death Detection ELISA; format: cell-based, human; details: fold over non-specific background, TSA at 100 ng/ml
Protocol: as §5, §7

[11] = tested on: human cancer cells; experiment: Cell growth and apoptosis, summary for cancer cells; format: cell-based
Protocol: as §5, §7, §6

[12] = tested on: human HDAC-7; experiment: Antisense ODN screen, HDAC-7 RNA, T24 cells; format: cell-based; details: 100 nM, 24 hours, Northern blot
Protocol: Eighteen phosphorothioate ODNs containing sequences complementary to the 5′ or 3′ untranslated regions of the human HDAC-7 gene (GenBank Accession No. AF239243) were screened as above.
as §1
(§8) Cells were harvested, and total RNAs were analyzed by Northern blot analysis. Briefly, total RNA was extracted using RNeasy miniprep columns (QIAGEN). Ten to twenty gg of total RNA was run on a formaldehyde-containing 1% agarose gel with 0.5 M sodium phosphate (pH 7.0) as the buffer system. […]

[13] = tested on: human HDAC-5; experiment: Antisense ODN screen, HDAC-5 RNA, T24 cells; format: cell-based; details: 100 nM, 24 hours, Northern blot
Protocol: Thirteen phosphorothioate ODNs containing sequences complementary to the 5′ or 3′ untranslated regions of the human HDAC-5 gene (GenBank Accession No. AF039691) were screened as above.
as §1, §8

[14] = tested on: human HDAC-1; experiment: Antisense ODN screen, HDAC-1 RNA expression by Northern blot in T24 cells; format: cell-based; details: 100 nM, 24 hours
Protocol: as §1
Cells were harvested, and total RNAs were analyzed by Northern blot analysis. Briefly, total RNA was extracted using RNeasy miniprep columns (QIAGEN). Ten to twenty gg of total RNA was run on a formaldehyde-containing 1% agarose gel with 0.5 M sodium phosphate (pH 7.0) as the buffer system. RNAs were then transferred to nitrocellulose membranes and hybridized with the indicated radiolabeled DNA probes. Autoradiography was performed using conventional procedures.

[15] = tested on: cyclin B1; experiment: Western blot of cyclin B1 in A549 cells; format: cell-based, human; details: 48 hours
Protocol: (§9) Human cancer A549 cells were treated with AS1, AS2 or MM oligo directed human HDAC1 for 48 hours. Total cell lysates were harvested and analyzed by Western blot using antibodies against human HDAC1, cyclin Bl, cyclin A and actin (all from Santa Cruz Biotechnology, Inc., Santa Cruz, Calif.).

[16] = tested on: cyclin A; experiment: Western blot of cyclin A in A549 cells; format: cell-based, human; details: 48 hours
Protocol: as §9

[17] = tested on: human HDAC-2; experiment: Antisense ODN screen, HDAC-2 RNA, T24 cells; format: cell-based; details: 100 nM, 24 hours, Northern blot
Protocol: Twenty-four phosphorothioate ODNs containing sequences complementary to the 5′ or 3′ UTR of the human HDAC-2 gene (GenBank Accession No. U31814) were screened as above. […] HDAC-2 MM was created as a control; compared to the antisense oligo, it contains a 7-base mismatch.
as §1, §2

[18] = tested on: HDAC-2 protein; experiment: Western blot of HDAC isotype protein expression in A549 cells, HDAC-2; format: cell-based, human; details: 50 nM, 48 hours
Protocol: as §3, §4

[19] = tested on: A549 cells; experiment: Growth in soft agar, colony count; format: cell-based, human; details: colonies counted after three weeks
Protocol: 1.3 g granulated agar (DIDFCO) was added to 100 ml deionized water and boiled in a microwave to sterilize. The boiled agar was held at 55 C until further use. Iscove's Modified Dulbecco×s Medium (GIBCO/BRL), 100× Penicillin-Streptomycin-Glutamine (GIBCO/BRL) and fetal bovine serum (medicorp) were pre-warmed at 37 C. To 50 ml sterile tubes was added 9 ml Isove's medium, 2 ml fetal bovine serum and 0.2 ml 100× Pen-Strep-Gln. Then 9 ml 55 C 1.3% agar was added to each tube. The tube contents were mixed immediately, avoiding air bubbles, and 2.5 ml of the mixture was poured into each sterile 6 cm petri dish to form a polymerized bottom layer. Dishes with polymerized bottom layers were then put in a CO2 incubator at 37 C until further use. In 50 ml sterile tubes were prewarmed at 37 C for each 4 cell lines/samples, 20 ml Iscove's medium, 0.4 ml 100× Pen-Strep-Gln and 8 ml fetal bovine serum. Cells were trypsinized and counted by trypan blue staining and 20,000 cells were aliquotted into a sterile 15 ml tube. To the tube was then added DMEM with low glucose (GIBCO/BRL)+10% fetal bovine serum+Pen-Strep-Gln to a final volume of 1 ml. To the prewarmed 37 C mix in the 50 ml tube was quickly added 8 ml 55 C 1.3% agar, which was then mixed well. […] Plates were wrapped up in foil paper and incubated in a CO2 incubator at 37° C. for three weeks, at which time colonies in agar are counted.

[20] = tested on: human HDAC-4; experiment: Antisense ODN screen, HDAC-4 RNA, T24 cells; format: cell-based; details: 100 nM, 24 hours, Northern blot
Protocol: Seventeen phosphorothioate ODNs containing sequences complementary to the 5′ or 3′ UTR of the human HDAC-4 gene (GenBank Accession No. AB006626) were screened as above. […] HDAC-4 MM1 and MM2 oligonucleotides were created as controls; compared to the antisense oligonucleotides, they each contain a 6-base mismatch.
as §1, §2

[21] = tested on: mammalian HDAC; details: Yoshida et al., J. Biol. Chem 265: 17174-17179 (1990); cited from earlier work
[22] = tested on: murine erythroleukemia cells; details: Yoshida et al, Cancer Research 47: 3688-3691 (1987); cited from earlier work

## 5′-CGCTTTCCTTGTCATTGACA-3′ (chemistry not given here) [HDAC-3 AS]
[1]
  antisense activity to human HDAC-3: antisense activity
[2]
  HDAC-3 protein expression: specifically inhibits
[3]
  Growth Inhibition (AS vs. MM): − (“−”: no inhibition)
[4]
  Growth Inhibition (AS vs. MM): − (“−”: no inhibition)
[5]
  Growth Inhibition (AS vs. MM): − (“−”: no inhibition)
[6]
  Growth Inhibition (AS vs. MM): − (“−”: no inhibition)
[7]
  Apoptosis After 48 Hour Treatment: − (“−”: <= 2x fold over non-specific background)
[8]
  Apoptosis After 48 Hour Treatment: − (“−”: <= 2x fold over non-specific background)
[9]
  Apoptosis After 48 Hour Treatment: − (“−”: <= 2x fold over non-specific background)
[10]
  Apoptosis After 48 Hour Treatment: − (“−”: <= 2x fold over non-specific background)
[11]; Tables 3 and 4
  growth arrest and apoptosis of human cancer cells: no effect

## 5′-CTTCAGCCAGGATGCCCACA-3′ (sugars from the 5' end m4 d12 m4, all phosphorothioate, methylation of C and T or U not given here) [HDAC-7 AS]
[12]
  antisense activity to human HDAC-7: antisense activity

## 5′-CTTCGGTCTCACCTGCTTGG-3′ (sugars from the 5' end m4 d12 m4, all phosphorothioate, methylation of C and T or U not given here) [HDAC-5 AS]
[13]
  antisense activity to human HDAC-5: antisense activity

## 5′-GAAACGTGAGGGACTCAGCA-3′ (chemistry not given here) [HDAC-1 AS1]
[14]
  antisense activity to human HDAC-1 (HDAC-1 RNA expression): antisense activity
[7]
  Apoptosis After 48 Hour Treatment: + (“+”: 2-3X fold)
[8]
  Apoptosis After 48 Hour Treatment: − (“−”: <= 2x fold over non-specific background)
[10]
  Apoptosis After 48 Hour Treatment: − (“−”: <= 2x fold over non-specific background)
[15]
  expression of cyclin B1: repress expression
[16]
  expression of cyclin A: repress expression

## 5′-GCTGAGCTGTTCTGATTTGG-3′ (chemistry not given here) [HDAC-2 AS]
[17]
  antisense activity to human HDAC-2: antisense activity
[18]
  HDAC-2 protein expression: specifically inhibits
[5]
  Growth Inhibition (AS vs. MM): − (“−”: no inhibition)
[7]
  Apoptosis After 48 Hour Treatment: − (“−”: <= 2x fold over non-specific background)
[8]
  Apoptosis After 48 Hour Treatment: − (“−”: <= 2x fold over non-specific background)
[9]
  Apoptosis After 48 Hour Treatment: − (“−”: <= 2x fold over non-specific background)
[10]
  Apoptosis After 48 Hour Treatment: − (“−”: <= 2x fold over non-specific background)
[19]
  growth of A549 cells in soft agar: do not
[11]; summary of Table 3
  cancer cell growth inhibition: minimal effect

## 5′-GGAAGCCAGAGCTGGAGAGG-3′ (chemistry not given here) [HDAC-1 AS2]
[14]
  antisense activity to human HDAC-1 (HDAC-1 RNA expression): antisense activity
[15]
  expression of cyclin B1: repress expression
[16]
  expression of cyclin A: repress expression

## 5′-TACAGTCCATGCAACCTCCA-3′ [HDAC-4 AS2]
[20]
  antisense activity to human HDAC-4: antisense activity

## CC(/C=C/C(=O)NO)=C\[C@@H](C)C(=O)c1ccc(N(C)C)cc1 [TSA, (R)-Trichostatin A, reference compound]
[7]
  Apoptosis After 48 Hour Treatment: ++ (“++”: 3-5X fold)
[8]
  Apoptosis After 48 Hour Treatment: + (“+”: 2-3X fold)
[9]
  Apoptosis After 48 Hour Treatment: ++ (“++”: 3-5X fold)
[10]
  Apoptosis After 48 Hour Treatment: ++ (“++”: 3-5X fold)
[21]
  inhibition of mammalian HDAC: potent inhibitor
[22]
  induction of differentiation in murine erythroleukemia cells: potent inducer of differentiation
